Consider 8 compounds from patent publication US5460797A, “Method for fixing tissues and cells for analysis using oxazolidine compounds” (Streck Laboratories, Inc., priority 1994, dated 1995).

Read-outs that look alike come from different tables or passages of the source.

One series relates to albumin. The note with it: 24 hours incubation. The procedure: Formaldehyde cross-links with itself and proteins to obscure the antigen. To determine if this is true, diazolidinyl urea was added to the protein, albumin.
A short description of series [1]: Toxicity studies comparing diazolidinyl urea with formaldehyde. The conditions noted are these: for LD50: route and species not given. It is filed as in vivo. From the text: Unlike the typical histological fixing agents, the active agents of the invention have extremely low toxicity. For example, toxicity studies comparing diazolidinyl urea of the invention with formaldehyde of the prior art show the following: […]

For another series, the system named is WBC's. Briefly: WBC fixation (cells do not disintegrate or clump after removal of compound). It is filed as cell-based. The note with it: 6% w/v solution, 24 hours, 22° C. The procedure: (§1) A 6% w/v solution of each compound was used and samples tested at 24 hours (22° C). […] Relative RBC fixation was detected by adding known RBC lysing agent. […] Fixing is relative and depends on how long you want cells or tissues to remain fixed.

A short description of series [2]: Formaldehyde content or release. Format: physicochemical.
A further series deals with RBC's. Briefly: Relative RBC fixation detected by adding RBC lysing agent. It is filed as cell-based. The note with it: 6% w/v solution, 24 hours, 22° C. The procedure:
as §1

The test system of a further series is 6C3HED lymphosarcoma. The experiment in a line: Tumor immunization with fixed ascites cells and challenge with viable cells. Format: in vivo, C3H mice. The conditions noted are these: cells fixed in 3% agent; two immunizations; challenge 100,000 viable cells i.p.; ">65" is given as "No deaths at 65 days". On the procedure: (§2) Tumor Immunization. 6C3HED lymphosarcoma was grown in C3H mice as ascites (ascites cause collection of fluid in the peritoneal cavity). The ascites cells were then washed in phosphate buffered saline (PBS) containing 3% IDU, 3% Glydant, or 3% Dimethylol urea. The cells were then placed at 6° C. for 48 hours.
As a control for immunization, cells were also washed into PBS containing 3% para formaldehyde and held under the same conditions. After 48 hours, all the cell groups were washed into PBS to remove the fixatives. The cell count was adjusted to 200,000/ml. Five C3H mice were injected with each of the cell groups for the first immunization. The procedure was repeated two weeks later.
The immunized mice were challenged with 100,000 viable 63HED ascites cells by intraperitoneal injection. The efficacy of the immunization was determined by the average death time for each group of mice.

The test system of the next series is human white blood cells. Briefly: Stabilization of white blood cells for flow cytometry (leukocyte positive control). Format: cell-based. From the text:
Leukocyte Positive Control Check for Antigen-Antibody Studies. Positive control methods are needed to verify the performance of reagents, preparation methods, staining procedures as well as the performance of the flow cytometer instrumentation itself. This requires a preparation of human white blood cells, preferably with a mixed distribution of leukocytes (lymphocytes, monocytes, and granulocytes), to evaluate the performance of the procedure before it is used to evaluate subject tissues, cells, or cell components. While much of the methodology used in this procedure is familiar to those skilled in the art, this invention is novel in its use of imidazolidinyl urea (IDU) as a cell stabilizer, the use of polyethylene glycol to reduce damage to the white blood cells during processing, the use of PMSF to inhibit protease activity, and the process itself.
The invention discloses a new method of producing a positive control check material with significant advances over the prior art. Production is begun by placing one pack of human white blood cells, obtainable from commercial blood banks, in each bottle of the centrifuge. Samples from each pack are placed into a plastic tube for screening on the flow cytometer. Because of the considerable variation from donor to donor in cluster designation antigen sites, only packs with similar properties are pooled. Each product pool should be limited to a particular ABO blood type to prevent clumping as a result of a histoin-compatibility reaction between the cells. The samples are placed into plastic tubes rather than glass because unfixed white blood cells may be activated by the glass causing them to adhere to the glass and each other.
The cells are prefixed 1:1 with 1% IDU in phosphate buffered saline ethylenediaminetetraacetic acid (PBS-EDTA) at 6° C. for one hour. […] The cells and all diluents used in the processing must be kept at 6° C. at all times by use of refrigeration and a chiller bath to reduce the amount of cell damage which alters the scattergram.
The bottle are next centrifuged at 900 rpm for 10 minutes, and the supernatant is removed. This angular velocity is sufficient to pellet the white blood cells without damaging them. Ammonium chloride tris, 200 ml/bottle set at 6° C. for 20-30 minutes, is then used to lyse the red blood cells.
A second centrifugation follows, again at 900 rpm for 10 minutes, and the supernatant is removed. Next 250 ml/bottle of ammonium chloride tris are added at 6° C. or 45-60 minutes, with 60 minutes usually ensuring complete lysis of the red blood cells.
The material is then centrifuged a third time at 900 rpm for 10 minutes and then the supernatant is removed. […]
A general note: Flow cytometry measures light scatter and fluorescence of single cells or particles in a stream.

The test system of series [3] is 6C3HED lymphosarcoma ascites cells. Briefly: Vital staining of ascites cells held in fixative 48 hours. The conditions noted are these: 3% in PBS, 6° C. It is filed as cell-based, C3H mice. On the procedure: as §2
The test system of another series is tetanus toxin. It is filed as in vivo, Swiss mice.
[4] abbreviates: solution (Glydant), as such (Suttocide).

The term LD50 denotes the dose expected to kill half of the subjects tested.

As for `C=O` [Formaldehyde, formaldehyde, reference compound], the “Disc-gel electrophoresis result with albumin” value with albumin is “a large number of multimers and insoluble proteins result”. In series [1] (in vivo), the “Dermal Toxicity” value is on record as 270 mg/kg and the “Inhalation Toxicity” value worked out at 500 mg/kg. Besides, the LD50 in series [1] (in vivo, read-out: LD50) was determined as 800 mg/kg.

As for diazolidinyl urea, the “Disc-gel electrophoresis result with albumin” value in the series on albumin was “no change in the rate of migration of the protein”. In addition, in the series with WBC's, the “Fixation of WBC's” value is “Fixes both RBC's and WBC's”. In series [2], the Formaldehyde content is 1-2 ppm. In [1] (in vivo), the “Dermal Toxicity” value was determined as 2000 mg/kg and the “Inhalation Toxicity” value is reported as “None”. This compound yielded an LD50 in series [1] of 2570 mg/kg. For the same compound, the “Fixation of RBC's” value with RBC's was “Fixes both RBC's and WBC's”.

Turning to imidazolidinyl urea, in the series on 6C3HED lymphosarcoma, the “Average Death Days” value was over 65 days. Besides, the “Effect on white blood cells, prefixation” value in the series with human white blood cells (1% IDU in PBS-EDTA, 1:1, 6° C., one hour) is “stabilize the white blood cells without interfering with the lysis of the red blood cells”. The “Effect on cells, fixation” value with human white blood cells (3% IDU, 6° C., 2 days) is on record as “stabilizes the cells for use on the flow cytometer”. Further, the “Effect on cells, fixation at higher concentrations” value with human white blood cells (IDU concentrations higher than 3%) was “causing cells to lose the cluster designation marker and produce scatterplot changes”. In addition, in the series on human white blood cells (IDU concentrations lower than 3%), the “Effect on cells, fixation at lower concentrations” value was “reducing stability”. Moreover, the “Viability by vital staining” value in [3] is given as “none of the cells were viable”. The “Fixation of WBC's” value in the series on WBC's was “Fixes both RBC's and WBC's”. Moreover, the Formaldehyde release entry in series [2] is listed as “Decomposition releases formaldehyde”. Further, in the series on tetanus toxin (14 days), the “percent increase in antibody titer over formalin, 14 Days” value turned out to be 200%. The “percent increase in antibody titer over formalin, 28 Days” value with tetanus toxin (28 days) is recorded as 560%. In addition, the “Fixation of RBC's” value in the series on RBC's was “Fixes both RBC's and WBC's”.

On to “para formaldehyde [Control, reference compound]”, for which the “Average Death Days” value in the series on 6C3HED lymphosarcoma was 10 days.

Take `O=[N+]([O-])C(Br)(CO)CO` [Bronopol, 2-bromo-2-nitropropane-1,3-diol]: the “Fixation of WBC's” value with WBC's is “Fixes both RBC's and WBC's”. For the same compound, in series [2], the Formaldehyde release entry is on record as “Decomposition liberates formaldehyde”. Moreover, the “Fixation of RBC's” value in the series with RBC's is “Fixes both RBC's and WBC's”.

`O=C(NCO)NCO` [Dimethylol urea, dimethylol urea]: the “Average Death Days” value with 6C3HED lymphosarcoma is on record as over 65 days.

On to `CC1(C)C(=O)N(CO)C(=O)N1CO` [Glydant, Dimethylol-5,5-dimethylhydantoin], for which the “Average Death Days” value in the series on 6C3HED lymphosarcoma is over 65 days. In series [3], the “Viability by vital staining” value is “none of the cells were viable”. The “Fixation of WBC's” value in the series on WBC's is “Fixes both RBC's and WBC's”. In series [2] (setting [4]), this compound came in with a Formaldehyde content of 2.1%. Further, the “Fixation of RBC's” value in the series with RBC's is “Fixes both RBC's and WBC's”.

Consider `O=C(O)CNCO` [Suttocide, Sodium hydroxymethyl glycinate], for which the “Fixation of WBC's” value in the series on WBC's is “Fixes RBC's and WBC's”. Moreover, the Formaldehyde content in series [2] (setting [4]) stood at 1%. Also, the “Fixation of RBC's” value in the series with RBC's was “Fixes RBC's and WBC's”.
